According to patent US9181288B2, “Azepane derivatives and methods of treating hepatitis B infections” (Novira Therapeutics, Inc., priority 2014, dated 2015):

Assays:
[1] = tested on: HBV replication in HepG2-2.2.15 cells; assay: Inhibition of HBV replication dot-blot assay; format: cell-based; details: Hepatitis B virus, 144 h, six days, reduction in HBV DNA levels
Method: Compounds active in the HBV assembly assay are tested for their activity and toxicity in cellular assay. In the first anti-viral assay, the ability of compounds to inhibit HBV replication in an HBV-producing hepatoma cell line using the dot-blot method is evaluated.
Briefly, confluent monolayers of HepG2-2.2.15 cells are incubated with complete medium containing various concentrations of a test compound. Three days later, the culture medium is replaced with fresh medium containing the appropriately diluted test compound. Six days following the initial administration of the test compound, the cell culture supernatant is collected, and cell lysis is performed. The samples are applied onto Nylos membranes and DNA is immobilized to the membrane by UV cross-linking. After pre-hybridization, the HBV probe is added and the hybridization is performed overnight. The membranes are exposed to the Kodak films; antiviral activity is calculated from the reduction in HBV DNA levels (EC50). The EC50 for antiviral activity is calculated from the dose response curves of active compounds. Assay performance over time is monitored by the use of the standard positive control compounds ETV, BAY 41-4109, and HAP-1.
Selected compounds were tested for their activity and toxicity in cellular assay. In the first anti-viral assay, the ability of compounds to inhibit HBV replication in an HBV-producing hepatoma cell line using the dot-blot method was evaluated.
Confluent monolayers of HepG2-2.2.15 cells were incubated with complete medium containing various concentrations of a test compound. Three days later, the culture medium was replaced with fresh medium containing the appropriately diluted test compound. Six days following the initial administration of the test compound, the cell culture supernatant was collected, and cell lysis was performed. The samples were applied onto Nylos membranes and DNA was immobilized to the membrane by UV cross-linking. After pre-hybridization, the HBV probe was added and the hybridization was performed overnight. The membranes were exposed to the Kodak films; antiviral activity was calculated from the reduction in HBV DNA levels (EC50). The EC50 for antiviral activity was calculated from the dose response curves of active compounds. Assay performance over time was monitored by the use of the standard positive control compounds ETV, BAY 41-4109, and HAP-1.

[2] = molecular target: HBV C150Bo capsid protein (mutant C150 HBV core protein labeled with BODIPY-FL) (Hepatitis B virus genotype D subtype adw, UniProt P03147, C107A/C48A/C61A/R150C); assay: HBV assembly assay (fluorescence quenching in vitro capsid assembly); format: biochemical; details: at about 10 μM; 50 mM Hepes pH 7.5, 150 mM NaCl, 1 hour room temperature
Chain of HBV C150Bo capsid protein (mutant C150 HBV core protein labeled with BODIPY-FL) (P03147 1-150 C48A/C61A/C107A/R150C): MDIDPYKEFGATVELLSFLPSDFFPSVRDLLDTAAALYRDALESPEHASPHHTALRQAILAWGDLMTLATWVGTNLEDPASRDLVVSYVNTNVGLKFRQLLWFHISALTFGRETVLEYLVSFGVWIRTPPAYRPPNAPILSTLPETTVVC

SMILES | inhibition at 10 µM [1] | Activity (HBV assembly assay) [2]
O=C(Nc1cc(F)c(F)c(F)c1)c1ccc(CF)c(S(=O)(=O)N2CCOCC(O)C2)c1 (stereo not drawn) [Compound 1981] | > 50% | + (‘+’ indicates >50% activity at about 10 μM)
O=C(Nc1ccc(F)c(Cl)c1)c1ccc(CCF)c(S(=O)(=O)N2CCCC(O)CC2)c1 (stereo not drawn) [Compound 2205, N-(3-chloro-4-fluoro-phenyl)-4-(2-fluoroethyl)-3-(4-hydroxyazepan-1-yl)sulfonyl-benzamide] | > 50% | + (‘+’ indicates >50% activity at about 10 μM)
O=C(Nc1ccc(F)c(F)c1)c1ccc(F)c(S(=O)(=O)N2CC(O)CC3CC3C2)c1 (stereo not drawn) [Compound 2547] | > 50% | + (‘+’ indicates >50% activity at about 10 μM)
O=C(Nc1cc(F)c(F)c(F)c1)c1ccc(F)c(S(=O)(=O)N2CCC[C@H](O)C(F)C2)c1 (stereo partly drawn) [Compound 1829_D2] | > 50% | + (‘+’ indicates >50% activity at about 10 μM)
Cc1ccc(C(=O)Nc2ccc(F)c(Cl)c2)cc1S(=O)(=O)N1CCCC(O)CC1 (stereo not drawn) [Compound 1910] | > 50% | + (‘+’ indicates >50% activity at about 10 μM)
O=C(Nc1ccc(F)c(F)c1)c1ccc(F)c(S(=O)(=O)N2CCCC(F)[C@H](O)C2)c1 (stereo partly drawn) [Compound 1821_D2] | > 50% | + (‘+’ indicates >50% activity at about 10 μM)
O=C(Nc1ccc(F)c(Cl)c1)c1ccc(F)c(S(=O)(=O)N2CC(O)CC3CC3C2)c1 (stereo not drawn) [Compound 2492] | > 50% | + (‘+’ indicates >50% activity at about 10 μM)
O=C(Nc1cc(F)c(F)c(F)c1)c1cccc(S(=O)(=O)N2CCOCC(O)C2)c1 (stereo not drawn) [Compound 1975] | > 50% | + (‘+’ indicates >50% activity at about 10 μM)
COc1ccc(C(=O)Nc2ccc(F)c(Cl)c2)cc1S(=O)(=O)N1CCCC(O)C(F)C1 (stereo not drawn) [Compound 2114_D2] | – | + (‘+’ indicates >50% activity at about 10 μM)
O=C(Nc1ccc(F)c(Cl)c1)c1cccc(S(=O)(=O)N2CCOCC(O)C2)c1 (stereo not drawn) [Compound 1977] | > 50% | + (‘+’ indicates >50% activity at about 10 μM)
O=C(Nc1ccc(F)c(F)c1)c1ccc(F)c(S(=O)(=O)N2CCCC(F)[C@@H](O)C2)c1 (stereo partly drawn) [Compound 1821_D1] | > 50% | + (‘+’ indicates >50% activity at about 10 μM)
CC(=O)O[C@@H]1CC[C@H](O)CN(S(=O)(=O)c2cc(C(=O)Nc3cc(F)c(F)c(F)c3)ccc2F)C1 [Compound 2618_D2] | > 50% | + (‘+’ indicates >50% activity at about 10 μM)
CC(=O)OC1CCCCN(S(=O)(=O)c2cc(C(=O)Nc3cc(F)c(F)c(F)c3)ccc2F)C1 (stereo not drawn) [Compound 2024] | > 50% | + (‘+’ indicates >50% activity at about 10 μM)
Cc1ccc(C(=O)Nc2ccc(F)c(F)c2)cc1S(=O)(=O)N1CCCCC(O)C1 (stereo not drawn) [Compound 1914] | > 50% | + (‘+’ indicates >50% activity at about 10 μM)
O=C(Nc1cc(F)c(F)c(F)c1)c1ccc(F)c(S(=O)(=O)N2CCOCC(O)(C3CC3)C2)c1 (stereo not drawn) [Compound 1987] | > 50% | + (‘+’ indicates >50% activity at about 10 μM)
CC(=O)O[C@@H]1CC[C@H](OC(C)=O)CN(S(=O)(=O)c2cc(C(=O)Nc3cc(F)c(F)c(F)c3)ccc2F)C1 [Compound 2625_D2] | > 50% | + (‘+’ indicates >50% activity at about 10 μM)
O=C(Nc1ccc(F)c(Cl)c1)c1ccc(F)c(S(=O)(=O)N2CCCC[C@H](O)C2)c1 [Compound 1763_E2] | > 50% | + (‘+’ indicates >50% activity at about 10 μM)

SMILES | inhibition at 10 µM [1] | Activity (HBV assembly assay) [2]
O=C(Nc1ccc(F)c(Cl)c1)c1ccc(F)c(S(=O)(=O)N2CCCC[C@@H](O)C2)c1 [Compound 1763_E1] | > 50% | + (‘+’ indicates >50% activity at about 10 μM)
CC1(O)COCCN(S(=O)(=O)c2cc(C(=O)Nc3ccc(F)c(Cl)c3)ccc2F)C1 (stereo not drawn) [Compound 1986] | > 50% | + (‘+’ indicates >50% activity at about 10 μM)
O=C(Nc1cc(F)c(F)c(F)c1)c1ccc(F)c(S(=O)(=O)N2CCC[C@@H](O)C(F)C2)c1 (stereo partly drawn) [Compound 1829_D1] | > 50% | + (‘+’ indicates >50% activity at about 10 μM)
CC(=O)O[C@@H]1CC[C@H](O)CN(S(=O)(=O)c2cc(C(=O)Nc3ccc(F)c(Cl)c3)ccc2F)C1 [Compound 2619_D2] | > 50% | + (‘+’ indicates >50% activity at about 10 μM)
CC1(O)CCCCN(S(=O)(=O)c2cc(C(=O)Nc3ccc(F)c(F)c3)ccc2F)C1 (stereo not drawn) [Compound 1891] | > 50% | + (‘+’ indicates >50% activity at about 10 μM)
O=C(Nc1ccc(F)c(Cl)c1)c1ccc(F)c(S(=O)(=O)N2CCCC(O)C(O)C2)c1 (stereo not drawn) [Compound 1909] | > 50% | –
O=C(Nc1cc(F)c(F)c(F)c1)c1ccc(F)c(S(=O)(=O)N2CCCCC(F)(F)C2)c1 [Compound 2121] | > 50% | + (‘+’ indicates >50% activity at about 10 μM)
O=C(Nc1ccc(F)c(Cl)c1)c1ccc(CF)c(S(=O)(=O)N2CCCC(O)CC2)c1 (stereo not drawn) [Compound 1916] | – | + (‘+’ indicates >50% activity at about 10 μM)
O=C(Nc1cc(F)c(F)c(F)c1)c1ccc(F)c(S(=O)(=O)N2CC(O)CC3CC3C2)c1 (stereo not drawn) [Compound 2548] | > 50% | + (‘+’ indicates >50% activity at about 10 μM)
O=C(Nc1cc(F)c(F)c(F)c1)c1ccc(F)c(S(=O)(=O)N2C[C@H](O)CC[C@H](O)C2)c1 [Compound 2617_D2] | > 50% | + (‘+’ indicates >50% activity at about 10 μM)
CC1(O)CCCN(S(=O)(=O)c2cc(C(=O)Nc3cc(F)c(F)c(F)c3)ccc2F)CC1 (stereo not drawn) [Compound 1944] | > 50% | + (‘+’ indicates >50% activity at about 10 μM)
O=C(Nc1ccc(F)c(Cl)c1)c1ccc(F)c(S(=O)(=O)N2CCOCC(O)C2)c1 (stereo not drawn) [Compound 1893] | > 50% | + (‘+’ indicates >50% activity at about 10 μM)
O=C(Nc1ccc(F)c(Cl)c1)c1ccc(F)c(S(=O)(=O)N2CCOC[C@H](O)C2)c1 [Compound 1893_E2] | > 50% | + (‘+’ indicates >50% activity at about 10 μM)
O=C(Nc1cc(F)c(F)c(F)c1)c1ccc(F)c(S(=O)(=O)N2CCCC(O)CC2)c1 (stereo not drawn) [Compound 1765] | > 50% | + (‘+’ indicates >50% activity at about 10 μM)
O=C(Nc1cc(F)c(F)c(F)c1)c1ccc(F)c(S(=O)(=O)N2CCOCC(O)C2)c1 (stereo not drawn) [Compound 1895] | > 50% | + (‘+’ indicates >50% activity at about 10 μM)
O=C(Nc1ccc(F)c(Cl)c1)c1ccc(F)c(S(=O)(=O)N2CCCC(F)[C@@H](O)C2)c1 (stereo partly drawn) [Compound 1822_D1] | > 50% | + (‘+’ indicates >50% activity at about 10 μM)
